These results are taken from patent US7563805B2, “Tri-, tetra-substituted-3-aminopyrrolidine derivative” (Daiichi Pharmaceutical Co., Ltd., priority 2005, dated 2009).

Molecules are shown by their SMILES. ≈ marks a conversion by molar mass, not a printed value. Marks after values point to notes of the source that are not given here.

The subject of one series is E. coli NIHJ. The series is described as follows: antibacterial activity (MIC), standard method of Japanese Society of Chemotherapy. To be noted: Escherichia coli.
For a further series, the system named is P. vulgaris, 08601. Described as above. To be noted: Proteus vulgaris, 08601, P. vulgaris.
For a further series, the system named is S. marscecens, 10100. Described as above.
Another series relates to P. aeruginosa, 32104. The series is described as above. To be noted: Pseudomonas aeruginosa.
Another series deals with P. aeruginosa, 32121. Described as above. To be noted: Pseudomonas aeruginosa.
The next series relates to S. aureus, 209P. Described as above. To be noted: Staphylococcus aureus.
In another series the test system is S. epidermidis, 56500. Described as above. The note with it: Staphylococcus epidermidis, 56500, S. epidermidis.
The subject of the next series is E. faecalis, ATCC 19433. The series is described as above. To be noted: Enterococcus faecalis, ATCC19433, E. faecalis.
The test system of series [1] is S. aureus, 87037 (LVFX-resistant MRSA). The description is as above. The note with it: Staphylococcus aureus, MRSA, S. aureus, 87037 (LVFX-resistant MRSA).
For series [2], the system named is S. pneumoniae, J24 (penicillin-intermediate resistant bacteria). Described as above. To be noted: Streptococcus pneumoniae.
Series [3] in a line: potential convulsant activity upon intracisternal administration, with and without 4-biphenyl acetic acid (BPAA). To be noted: 5 μg/5 μL/mouse i. cist.
Description: The potential convulsant activity upon intracisternal administration to mouse was also evaluated for the concomitant and administration with 4-biphenyl acetic acid (BPAA: an active metabolite of fenbufen) and in the absence of such concomitant administration. The evaluation was conducted by using 4 week old male Slc:ddY mice (6 animals per group) and intracisternally administering the test substance at a dose of 5 μg/5 μL/mouse (solvent, 0.5% lactic acid). Monitoring of the animals for the convulsion and death was started immediately after the administration and continued to 30 minutes after the administration. When used concomitantly with the BPAA, BPAA was suspended in 5% CMC, and 400 mg/kg was orally administered at a solution amount of 10 mL/kg, and the test substance was intracisternally administered 30 minutes after the BPAA.

For `O=C(O)c1cn(C2CC2)c2cc(N3CCNCC3)c(F)cc2c1=O` [CPFX, ciprofloxacin, reference compound], the MIC – broadly, the least concentration at which growth counts as inhibited – against E. coli NIHJ is at most 3 ng/mL; with P. vulgaris, 08601 it was at most 3 ng/mL; in the series with S. marscecens, 10100, 0.025 µg/mL (≈ 0.0754 µM); against P. aeruginosa, 32104, 0.05 µg/mL (≈ 0.151 µM); against P. aeruginosa, 32121, 0.025 µg/mL (≈ 0.0754 µM); in the series on S. aureus, 209P, 0.1 µg/mL (≈ 0.302 µM). Also, the minimum inhibitory concentration (MIC) is 0.2 µg/mL (≈ 0.604 µM) with S. epidermidis, 56500; 0.78 µg/mL (≈ 2.35 µM) in the series on E. faecalis, ATCC 19433; over 6.25 µg/mL in series [1]; 0.39 µg/mL (≈ 1.18 µM) in [2]. Moreover, the “number of dead animals” value is 6/6**^## (6/6**^##) in [3] ((with BPAA 400 mg/kg oral, 30 minutes before)) and 0/6 (0/6) in series [3] ((without BPAA)).
